According to PMC10797614, “MYC-Targeting Inhibitors Generated from a Stereodiversified Bicyclic Peptide Library” (Journal of the American Chemical Society, 2024):
*1 amine or outer side, *2 acyl side, *3 side chain or, on linkers, in order; H or OH if unused. Where a SMILES comes first, the peptide text is derived from it. Bridges are numbered along the chain shown (N, C = ends). X1 = O=C([C@@H]1C[C@H](C=CCO[*:3])C[C@@H]1C=CCO[*:1])[*:2]

What was measured:
MYC = biological target: T1, MYC (Homo sapiens, UniProt P01106); test: Temperature-dependent circular dichroism spectroscopy; type: binding; conditions: NT-B2R 100 μM, MYC 0.1 mg/mL, 0.1 M phosphate buffer pH 7.4, 30 °C to 60 °C
T1 construct: made in house; host or cells: E. coli BL21(DE3)
T1 sequence (P01106 16-454): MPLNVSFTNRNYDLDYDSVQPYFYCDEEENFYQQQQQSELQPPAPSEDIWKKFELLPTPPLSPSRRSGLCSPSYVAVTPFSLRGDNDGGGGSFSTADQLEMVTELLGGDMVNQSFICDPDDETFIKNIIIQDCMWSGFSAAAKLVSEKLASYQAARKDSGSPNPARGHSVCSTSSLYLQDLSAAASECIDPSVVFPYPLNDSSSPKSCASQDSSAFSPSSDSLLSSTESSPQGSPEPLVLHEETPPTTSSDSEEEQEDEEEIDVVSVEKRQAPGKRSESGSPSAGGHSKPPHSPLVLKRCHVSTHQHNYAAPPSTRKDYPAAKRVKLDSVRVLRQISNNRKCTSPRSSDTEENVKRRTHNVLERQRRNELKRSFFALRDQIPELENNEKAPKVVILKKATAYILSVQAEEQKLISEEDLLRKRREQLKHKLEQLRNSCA
From the text: To further study the nature of the interaction between NT-B2R and MYC, we leveraged temperature-dependent circular dichroism (CD) spectroscopy. Here, if no conformation change was involved, the CD spectra of the MYC/NT-B2R mixture would be the addition of each component’s spectra (Figure 3J, calculated). However, we observed drastically different CD spectra (Figure 3J, measured and difference).
Protein thermal shift assay with GlomeltTM
Follow the Biotium’s protocol PI-3302133022. The reactions were set up in qPCR tubes, for each tube 1 μg recombinant MYC protein (1 μg/μL, 1 μL), GlomeltTM dye (10x, 2 μL), peptide ligand (2x, 10 uL, final concentration 500 μM), PBS (1x, 7 uL) to make a total volume of 20 μL with triplicate. For control group, PBS (1x, 17 μL) was used without peptide ligand. […] The resulting curve was fitted with a Boltzmann curve within the range of 45-60 °C and Tm was calculated from the fitted curve. […]
NT-B2R peptide and MYC protein were diluted to the final working concentrations of 100 μM and 0.1 mg/mL respectively. […] Spectra in the 180-280 nm range were recorded in a 1 mm path length cell.
The collected CD spectra were processed in OriginProTM. […] Spectra addition and subtraction were performed before the matrix conversion to generate the calculated and difference […]

[1] = tested on: MYC and phosphor-MYC (p-MYC, T58); test: Western blot of MYC and phosphor-MYC levels in treated U87 cells; type: cell-based, human; conditions: liposome-delivered peptide
From the text: We then evaluated the biological effects of NT-B2R in cells.

[2] = tested on: MYC transcription activity (HALLAMRK MYC TARGETS V1 gene set); test: RNA-seq, differential expression (DESeq) and GSEA in U87 cells; type: cell-based, human; conditions: treated vs vehicle, p-value < 0.001, FDR 0.005
From the text: To test whether NT-B2R directly affected MYC activity, we performed RNA-seq on the U87 cells and evaluated the differentially expressed genes using DESeq. […] A caveat here is that a global shift of transcription activities will not be observable by this analysis, due to the embedded normalization procedure.[38] Nevertheless, gene set enrichment analysis (GSEA) results highlighted that MYC target gene sets were enriched with high statistical significance and low false discovery probabilities, supporting that MYC was NT-B2R’s main target (Figure 4G).
U87 cells were seeded in six 100x20 mm cell culture dishes at 1000 k/dish and incubated for 24h in full DMEM medium containing 10% FBS and 1% PS. […]
Total RNA of the harvested cells was extracted and purified using the RNeasy Micro Kit (QIAGEN). Following the extraction, RNA integrity and quantitation were assessed using the RNA Nano 6000 Assay Kit on the Bioanalyzer 2100 system (Agilent Technologies). […] The obtained six library samples were pooled together and sequenced on a NovaSeq 6000 (Illumina) to reach approximately 30M 150bp pair-end reads per sample.
The obtained sequencing data was preprocessed using TrimGalore, aligned using STAR, and counted using HTSeq. […]

[3] = free peptide; liposomes therefore used as delivery vehicles

Question: Which results are given for CC(C)C[C@@H]1NC(=O)[C@H](CCCNC(=N)N)NC(=O)[C@@H]2CCCCNC(=O)[C@@H]3C[C@H](C=CCOC(=O)CC[C@@H](C(N)=O)NC1=O)C[C@@H]3C=CCOC(=O)CC[C@H](N)C(=O)N[C@@H](Cc1c[nH]c3ccccc13)C(=O)N1CCC[C@H]1C(=O)N[C@@H](Cc1c[nH]cn1)C(=O)N[C@@H](CCCNC(=N)N)C(=O)N2 [NT-B2R] (H-EWPHRKRLE-NH2; linker 1-6-9 via X1; N-terminus and C-terminus assumed)?
Answer: CD spectra of MYC/peptide mixture versus calculated sum (in words) (MYC): significant changes in the conformation landscape; expression and phosphorylation levels of MYC (Western blot) [1]: did not alter; GSEA normalized enrichment score (NES), HALLAMRK MYC TARGETS V1 [2]: −5.955; cell permeability (in words) [3]: not cell-permeable
